# From patent US10787465B2, “Lanthanide toolbox for organelle specific molecular imaging with multi-color” (New Life Medicine Technology Company Limited, priority 2017, dated 2020)
# How the values were obtained:
# SK-N-SH cells = assay: MTT cell cytotoxicity assay, SK-N-SH; format: cell-based, Human; conditions: Incubation time = 24 hours
# Method: (§1) Human cervical cancer HeLa cells were grown in Dulbecco's Modified Eagle Medium (DMEM). Human lung normal diploid fibroblasts MRC-5 and neuroblastoma cells SK-N-SH were provided by Cell resource center of Shanghai Institute of Biological Sciences, Chinese Academy of Sciences; and cultured in MEM (GIBCO 41500034); Human derived liver cells QSG-7701 cells were grown in RPMI-1640 (GIBCO 31800022); all cells were supplemented with 10% (v/v) fetal bovine serum, 1% penicillin and streptomycin at 37° C. and 5% CO2.
# (§2) HeLa, SKA-SH, QSG-7701 or MRC-5 cells treated with testing complexes for 24 hours were further incubated with MTT, 3-(4,5-dimethylthiazol-2-yl)-2 and 5-diphenyltetrazolium bromide (0.5 mg; ml) for 4 hours, to produce formazan during cell metabolism. Then, formazan was thoroughly dissolved by dimethyl sulfoxide (DMSO), and the absorbance of solutions was measured in Bio-Rad iMark microplate reader (570 nm). Quadruplicates were performed. Data analysis and plotting were operated by the GraphPad Prism 5 software.
# MRC-5 cells = assay: MTT cell cytotoxicity assay, MRC-5; format: cell-based, Human; conditions: Incubation time = 24 hours
# Method: as §1, §2
# HeLa cells [1] = assay: MTT cell cytotoxicity assay, HeLa; format: cell-based, Human; conditions: Incubation time = 24 hours
# Method: as §1, §2
# GFP-ARL13B = assay: Co-localization imaging with primary cilia marker GFP-ARL13B; format: cell-based, Human; conditions: HeLa cells, 10 μM
# Text: (§3) (a) 3D Co-Localization Imaging of HGEu001 and HGEu002 with Primary Cilia Markers ARTL13B and IFT88.
# (§4) Full length ARTL13B (ADP-ribosylation factor-like protein 13B) was PCR amplified from cDNA library and inserted into multiple cloning sites (MCS) of pEGFP-C3 (CLONETECH, #6082-1) using restriction digestion sites of XhoI/EcorI for GFP-ARTL13B expression. […] Plasmid mEmerald-IFT88-N-18 (intraflagellar transport protein 88 homolog) expressing GFP-IFT88 was a gift from Michael Davidson (Addgene plasmid #54125). Plasmids were amplified in E. coli (DH5α) and purified using a StarPrep Plasmid Miniprep Kit (Genstar). Both GFP-ARL13B and GFP-ITF88 for primary cilium tracking were expressed in HeLa cells through lipofectamine2000 (Cat. No.11668-019, Invitrogen) mediated transfection. Briefly, a 3.5 cm dish of HeLa cells (with 70-80% confluent) was transfected with 4 μg DNA plus 4 μL lipotectamine2000 mixture according to the manufacturer instructions. After incubation for 8 hours, 10 μM of HGEu001 or HGEu002 were added and incubated for 6 hours.
# HeLa cells [2] = assay: Two-photon confocal in vitro imaging (subcellular localization); format: cell-based, Human; conditions: 10 μM; for localization of red emission: two-photon λex=700 nm
# Method: Cells were seeded on coverslip in 35-mm culture dishes overnight. And then incubated with HGEu001 or HGEu002 (10 μM) for 6 hours, and the cells were washed by PBS 3 times before imaging. […] Then the unabsorbed complexes were washed out with PBS buffer and the cells were subject to microscopic imaging. The in vitro imaging of HGEu001 and HGEu002 were undertaken on a linear fluorescence microscopy under 375 nm UV light excitation or a confocal laser scanning microscope, Leica TCS SP8, equipped with a Ti:sapphire laser (Libra II, coherent). The excitation beam produced by 690 nm to 1080 nm (fs laser) was focused on the adherent cells through a 63× oil immersion objective.
# 3D images obtained by the Z-stacks form the two-photon confocal microscopy and the 3D reconstruction was done with built-in programs of Leica TCS SP8 confocal microscope.
# [3] = test system: organelles (mitochondria, lysosome and Golgi apparatus); assay: Co-localization imaging with organelle probes; format: cell-based, Human; conditions: HeLa cells, 10 μM, 6 hours, MitoTracker Green FM
# Method: (b) Co-Localization Imaging of HGEu001 and HGEu002 with Organelles.
# Live cell labeling probes of organelles (mitochondria, lysosome and Golgi apparatus) MitoTracker® Green FM (M-7514), LysoTracker® Green DND-26 (L-7526) and GolgiTracker® Oregon Green (W6748, Wheat Germ Agglutinin) were respectively purchased from ThermoFisher Scientic Inc. and stocked in −20° C.
# Three dishes of HeLa cells (1×10^5) were first incubated with 10 μM HGEu001/HGEu002 for 6 hours. Then organelles probes (50 nM, each) were added in parallel to the cells and further incubated for 15 minutes. The cells were washed by PBS 3 times before imaging on the linear fluorescence microscopy. Under the excitation of UV light (375 nm) emission from the channel (610-630 nm) were collected for the emission signals from HGEu001/HGEu002. Under 488 nm blue light excitation, imaging channel in the range between 505 and 555 nm were collected from the emission signal of organelles dyes.
# GFP-IFT88 = assay: Co-localization imaging with primary cilia marker GFP-IFT88; format: cell-based, Human; conditions: HeLa cells, 10 μM, 6 hours, z stack, λex=700 nm
# Text: as §3, §4
# QSG-7701 cells = assay: MTT cell cytotoxicity assay, QSG-7701; format: cell-based, Human; conditions: Incubation time = 24 hours
# Method: as §1, §2
# [4] = Photophysical studies (absorption, emission, decay lifetime, quantum yield); format: physicochemical
# Method: UV-Visible absorption spectra in the spectral range 200 to 1100 nm were recorded by an HP Agilent UV-8453 Spectrophotometer. The emission spectra and the emission decay lifetimes of HGEu001 and HGEu002 were measured by Horiba Fluorolog-3 spectrophotometer and also measured by Edinburgh instrument ELS920 spectrophotometer for cross checking. (Two spectrophotometers are equipped with a 450 W continuous xenon lamp for steady state emission measurement, 60 W xenon flashlamp for emission life time measurement and an UV-Vis PMT detector—Hamamatsu—R928 cooled 216 at −20° C.)
# UV-Visible absorption spectra of HGEu001-Coumarin and HGEu001-Por were recorded by an HP Agilent UV-8453 Spectrophotometer. The emission spectra of HGEu001-Coumarin and HGEu001-Por were measured by Horiba Fluorolog-3 spectrophotometer, which was equipped with a 450 W continuous xenon lamp and a UV-Vis PMT detector—Hamamatsu—R928 cooled 216 at −20° C. for steady state emission measurement.
smiles,measurement,setting,value
CC(C)(C)NC(=O)CN1CCN(CC(=O)NC(C)(C)C)CCN(Cc2cc(C#Cc3ccc(NC(=O)c4ccc(C(F)(F)F)cc4)cc3)ccn2)CCN(CC(=O)NC(C)(C)C)CC1.O.[Cl-].[Cl-].[Cl-].[Eu+3] [HGEu002],IC50,SK-N-SH cells,437 µM
same,IC50,MRC-5 cells,402 µM
same,IC50,HeLa cells [1],417 µM
same,overlap of red emission with green emission of GFP-ARL13B (merged images),GFP-ARL13B; 6 hour incubation after GFP transfection,only slight yellow emission can be found in their merged images
same,"merged emission on co-staining with GFP-ARL13B, three dimensional imaging","GFP-ARL13B; 6 hours, z stack, λex=700 nm",did not show merged yellow in vitro emission
same,localization of red emission,HeLa cells [2]; 3 hours incubation,localized in cytoplasm
same,localization of red emission,HeLa cells [2]; 6 hours incubation,localized in cytoplasm
same,"europium emission in the rod-like organelles, three dimensional confocal images","HeLa cells [2]; 6 hours, z stack, excitation at 700 nm",did not show any europium emission in the rod-like organelles
same,localization of red emission,HeLa cells [2]; 18 hours incubation,localized in cytoplasm
same,localization of red emission,HeLa cells [2]; 24 hours incubation,localized in cytoplasm
same,"merged emission with green mito-tracker, three dimensional imaging",[3],did not show merged yellow in vitro emission
same,"merged emission on co-staining with GFP-IFT88, three dimensional imaging",GFP-IFT88,did not show merged yellow in vitro emission
same,IC50,QSG-7701 cells,410 µM
same,"τ(D2O), europium emission decay lifetime","[4]; D2O, λem = 614 nm, 5D0→7F2, λex = 340 nm",1.78 ms
same,"τ(H2O), europium emission decay lifetime","[4]; H2O, λem = 614 nm, 5D0→7F2, λex = 340 nm",0.56 ms
same,ε (absorption coefficient),"[4]; in H2O, 298K",22200 M⁻¹ cm⁻¹
same,λmax (absorption),"[4]; in H2O, 298K",327 nm
same,"ΦL^Eu, overall europium emission quantum yield","[4]; in H2O, by integrated sphere",10.3%
same,"q, derived hydration number","[4]; q (±20%), from k(H2O) and k(D2O)",0.9
